From the NIST ThermoML archive (doi:10.1021/acs.jced.9b00100)
Numbers after ± are expanded uncertainties.

How the values were obtained:
[1] = refractive index (Na D-line) (dimensionless); conditions: 293.15 K; 101.33 kPa; Liquid; Standard Abbe refractometry
[2] = Liquid, Ebulliometric method (Recirculating still)

refractive index [1]	vapor or sublimation pressure ([2]; 342.34 K)	vapor or sublimation pressure ([2]; 352.05 K)	vapor or sublimation pressure ([2]; 361.65 K)	vapor or sublimation pressure ([2]; 342.95 K)	vapor or sublimation pressure ([2]; 352.65 K)	vapor or sublimation pressure ([2]; 362.55 K)	SMILES
1.3848 ± 0.002	31.5 ± 0.29 kPa	49.5 ± 0.31 kPa	73.2 ± 0.33 kPa	–	–	–	CCCO [propan-1-ol]
1.3893 ± 0.002	32.7 ± 0.34 kPa	47.8 ± 0.27 kPa	66.2 ± 0.31 kPa	34.3 ± 0.34 kPa	48.7 ± 0.27 kPa	68.1 ± 0.31 kPa	CCCC(C)=O [pentan-2-one]
1.3989 ± 0.002	–	–	–	13.4 ± 0.24 kPa	21.4 ± 0.24 kPa	33.4 ± 0.25 kPa	CCCCO [butan-1-ol]
